Assay results as given in ChEMBL document CHEMBL5113548, “Novel Lactams as Cbl-b Inhibitors for Treating Cancer” (ACS Med Chem Lett, 2022).

Biological target: E3 ubiquitin-protein ligase CBL-B (Homo sapiens, UniProt Q13191)
Experiment: Inhibition of Cbl-b (unknown origin) assessed as reduction in LCK ubiquitination preincubated for 60 mins followed by kinase mix addition measured after 90 mins by TR-FRET assay

Chain of E3 ubiquitin-protein ligase CBL-B (Q13191 whole entry): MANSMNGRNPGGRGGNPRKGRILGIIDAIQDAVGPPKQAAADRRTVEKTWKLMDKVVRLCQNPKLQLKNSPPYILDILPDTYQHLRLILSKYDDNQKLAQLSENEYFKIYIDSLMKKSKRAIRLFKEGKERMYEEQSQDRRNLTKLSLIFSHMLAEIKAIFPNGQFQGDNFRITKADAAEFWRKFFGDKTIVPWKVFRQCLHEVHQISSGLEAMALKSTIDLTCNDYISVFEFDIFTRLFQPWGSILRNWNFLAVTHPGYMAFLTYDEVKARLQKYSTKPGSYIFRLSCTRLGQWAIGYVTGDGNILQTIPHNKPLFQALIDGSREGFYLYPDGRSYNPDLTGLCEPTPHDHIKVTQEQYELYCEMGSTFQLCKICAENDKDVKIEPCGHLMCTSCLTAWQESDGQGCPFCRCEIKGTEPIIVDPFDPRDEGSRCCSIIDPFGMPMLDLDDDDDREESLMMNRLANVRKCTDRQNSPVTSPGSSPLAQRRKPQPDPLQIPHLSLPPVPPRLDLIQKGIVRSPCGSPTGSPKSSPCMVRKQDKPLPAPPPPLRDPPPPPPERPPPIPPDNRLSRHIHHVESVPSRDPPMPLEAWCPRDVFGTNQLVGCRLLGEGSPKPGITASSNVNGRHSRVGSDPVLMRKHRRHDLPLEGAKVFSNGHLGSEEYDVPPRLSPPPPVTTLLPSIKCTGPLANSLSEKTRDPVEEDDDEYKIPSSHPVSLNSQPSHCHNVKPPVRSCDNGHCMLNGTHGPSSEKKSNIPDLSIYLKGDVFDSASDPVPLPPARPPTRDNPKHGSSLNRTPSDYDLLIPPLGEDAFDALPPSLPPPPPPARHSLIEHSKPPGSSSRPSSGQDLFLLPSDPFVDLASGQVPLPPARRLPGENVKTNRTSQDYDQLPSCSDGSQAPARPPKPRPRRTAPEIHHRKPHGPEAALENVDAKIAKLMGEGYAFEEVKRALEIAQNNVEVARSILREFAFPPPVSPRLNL

| SMILES | IC50 [nM] |
| --- | --- |
| CC(C)[C@@H]1CN(C)CCN1Cc1cc2c(c(C(F)(F)F)c1)CN(c1cc(C3(Cc4nncn4C)COC3)cc(OC3CCCC3)n1)C2=O | 5.5 |
| C[C@@H](NC1(C)CCC1)c1cc2c(c(C(F)(F)F)c1)CN(c1cccc(C3(Cc4nncn4C)CC(F)(F)C3)c1)C2=O | 5.8 |
| C[C@@H](NC1(C)CCC1)c1cc2c(c(C(F)(F)F)c1)CN(c1cccc(C3([C@@H](F)c4nncn4C)COC3)c1)C2=O | 6.7 |
